This note sets out measurements from ChEMBL document CHEMBL1201862, “PubChem BioAssay data set” (2004).

Test systems include DMS-114; DMS-273; KM-20L2; RXF 631; SNB-78; Hs-578T; MCF7; MDA-MB-231; NCI/ADR-RES.
Common to all, as to assay: NCI-60 cell line screen, 48 h

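These data come from cells grown in 96-well plates and exposed to compound for 48 hours at five concentrations. The concentration for 50% growth inhibition is given as GI50.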 Active and inactive are the calls of the source. Cut-off read from the data, not from the text of the source: active = GI50 up to about 1.1 µM and inactive = higher.

Regarding `O=c1c2ccccc2[nH]c2c(O)ccc(O)c12`, the GI50 is 17.9 µM (inactive) in the assay with DMS-114; 16.6 µM (inactive) in the assay on DMS-273; 78.9 µM (inactive) in the assay with KM-20L2; 21.8 µM (inactive) with RXF 631; 19 µM (inactive) with SNB-78.

`O=C1/C(=C/c2ccc(Cl)cc2)CCC1CCN1CCOCC1` (centres undefined): the GI50 is 28.7 µM (inactive) with DMS-114; 57 µM (inactive) with DMS-273; 43.8 µM (inactive) in the assay on KM-20L2; 46.6 µM (inactive) with RXF 631; > 100 µM (inactive) in the assay on SNB-78.

For the compound `Cc1cc(C)c(C(=O)OC(c2ccccc2)C(c2ccccc2)N2CCOCC2)c(C)c1` (centres undefined), the GI50 in the assay with DMS-114, in the assay with DMS-273, with KM-20L2, in the assay on RXF 631 and in the assay with SNB-78 was > 100 µM (inactive) in each case.

As to `Cc1ccc(S(=O)(=O)N2CCN(C=S)CC2)cc1`, the GI50 in the assay on DMS-114, in the assay with DMS-273, in the assay with KM-20L2, in the assay on RXF 631 and in the assay with SNB-78 was > 100 µM (inactive) each time.

As to `CS(=O)(=O)c1nc(Cl)c(Cl)c(C#N)c1Cl`, the GI50 in the assay on DMS-114 was 5.32 µM (inactive); in the assay with DMS-273, 6.68 µM (inactive); with Hs-578T, 4.34 µM (inactive); in the assay with KM-20L2 it was 6.03 µM (inactive); with MCF7 it was 3.42 µM (inactive); in the assay with MDA-MB-231, 0.619 µM (active). In addition, the GI50 was 2.25 µM (inactive) in the assay with NCI/ADR-RES, 20.2 µM (inactive) with RXF 631 and 9.91 µM (inactive) with SNB-78.

Take `COc1ccc(/C(Cl)=C(\C=O)c2ccc([N+](=O)[O-])cc2)cc1`: the GI50 in the assay on DMS-114 was 17.3 µM (inactive); in the assay with DMS-273 it was 20 µM (inactive); in the assay with KM-20L2 it was 15 µM (inactive); in the assay on RXF 631, 24.2 µM (inactive); with SNB-78, 5.6 µM (inactive).

Turning to `S=C1SCC2CCCN12` (centres undefined), the GI50 in the assay on DMS-114, in the assay on DMS-273, in the assay with KM-20L2, in the assay on RXF 631 and in the assay on SNB-78 was > 100 µM (inactive) throughout.
